The subject of assay [1] is cellular Class I HDAC activity in Jurkat E6-1 cells. Nature of the assay: Inhibition of cellular Class I HDAC activity, Cell (Lys-Ac) substrate. Format: cell-based. The note with it: Homo sapiens, Jurkat E6.1, Jurkat E6.1 cells, Boc-Lys(Ac)-AMC. The procedure: Example 18: Analysis of Inhibition of Cellular Class I HDAC Activity with Class IIa Histone Deacetylase (HDAC) Inhibitors: Cell (Lys-Ac) Substrate
The Class I HDAC activity of Class IIa Histone Deacetylase (HDAC) inhibitors was quantified by measuring the cellular histone deacetylase enzymatic activity using the fluorogenic substrate, Boc-Lys(Ac)-AMC. This was performed according to the procedure in Example 17, using Boc-Lys(Ac)-AMC substrate in place of Boc-Lys(TFA)-AMC.

For assay [2], the system named is cellular Class IIa HDAC activity in Jurkat E6-1 cells. Nature of the assay: Inhibition of cellular Class IIa HDAC activity, Cell (Lys-TFA) substrate. Format: cell-based. The note with it: Homo sapiens, Jurkat E6.1, Jurkat E6.1 cells, Boc-Lys(TFA)-AMC. The text has this:
Example 17: Analysis of Inhibition of Cellular Class IIa HDAC Activity with Class IIa Histone Deacetylase (HDAC) Inhibitors: Cell (Lys-TFA) Substrate
The potency of Class IIa Histone Deacetylase (HDAC) inhibitors was quantified by measuring the cellular histone deacetylase enzymatic activity using the fluorogenic substrate, Boc-Lys(TFA)-AMC. After penetration in Jurkat E6-1 cells, the substrate was deacetylated to Boc-Lys-AMC. After cell lysis and cleavage by trypsin, the fluorophore AMC was released from the deacetylated substrate only. The fluorescence of the sample was directly related to the histone deacetylase activity in the sample.
Jurkat E6.1 cells were cultured according to standard cell culture protocols in Jurkat E6.1 Growth Media (RPMI without phenol red, 10% FBS, 10 mM HEPES, and 1 mM Sodium Pyruvate). Jurkat E6.1 cells were counted using a Coulter Counter and resuspended in Jurkat E6.1 growth media at a concentration of 75,000 cells/35 μL. 35 μL or 75,000 cells was seeded into Greiner microtitre assay plates. The plates were then incubated at 37° C. and 5% CO2 while other assay components were being prepared.
(§1) Serial dilutions of the HDAC inhibitors and control reference compound (1-(5-(3-((4-(1,3,4-oxadiazol-2-yl)phenoxy)methyl)-1,2,4-oxadiazol-5-yl)thiophen-2-yl)-2,2,2-trifluoroethanone) were made by first resuspending the lyophilized compound to a final concentration of 10 mM in 100% DMSO. Stocks of 70 aliquots of the 10 mM compound in DMSO were prepared and stored at −20° C. From one stock aliquot of each tested compound and the reference compound, a 16-point serial dilution was prepared according to Table 1 using a 125 μL 16-channel Matrix multi-channel pipette.
2 μL (200×) of each diluted solution and each control (full activity: 100% DMSO alone or full inhibition 1 mM) was stamped into V-bottom polypropylene 384-well compound plates using either the Bravo, Janus, or 12.5 μL 16-channel Matrix multi-channel pipette. Each well with the 200× compound solution was diluted 1:20 by the addition of 38 μL Jurkat assay buffer+DMSO (9.5% DMSO, RPMI without phenol red, 0.09% FBS, 9 mM Hepes, and 0.9 mM Sodium Pyruvate equilibrated to r.t.)
5× (500 μM) substrate was prepared just prior to the addition to the assay. The 5× substrate was prepared by diluting a 100 mM Boc-Lys(TFA)-AMC in DMSO solution 1:200 by adding it drop-wise to Jurkat assay medium (RPMI without phenol red, 0.1% FBS, 10 mM Hepes, and 1 mM Sodium Pyruvate equilibrated to 37° C.) while vortexing at slow speed to prevent precipitation.
10 mL of 3× lysis buffer was prepared with 8.8 mL of 3× stock lysis buffer (50 mM Tris-HCl, pH 8.0, 137 mM NaCl, 2.7 mM KCl, 1 mM MgCl2, 1% Nonidet P40 Substitute equilibrated to r.t.) and 1.2 mL of 3 mg/mL Trypsin equilibrated to r.t.
5 μL of each solution of 1:20 diluted compound from above was transferred to the Greiner microtitre assay plates with 75,000 cells/well using the Bravo. Cells were then incubated for 2 hours at 37° C. and 5% CO2. The assay was then started by adding 10 μL of 5× (500 μM) substrate to the assay plate using either the Bravo or 16-channel Matrix multi-channel pipette. The cells were then incubated for 3 hours at 37° C. and 5% CO2. Next, 25 μL of 3× lysis buffer was added to each well using either the 125 μL 16 channel pipette or the Bravo. The assay plate was then incubated overnight (15-16 hours) at 37° C. and 5% CO2. The following day, the plates were shaken on an orbital shaker for 1 minute at 900 rpm. Finally the top read fluorescence (Excitation: 355 nm, Emission: 460 nm) was measured using PerkinElmer EnVision.

The target in assay [3] is human catalytic domain HDAC4 protein (Homo sapiens (Human), UniProt P56524). Nature of the assay: Inhibition of HDAC4 catalytic domain, Boc-Lys(TFA)-AMC fluorogenic substrate. Conditions: read-out: HDAC4 Biochemical IC50.
From the text: Example 13: Analysis of Inhibition of HDAC4 with Class IIa Histone Deacetylase (HDAC) Inhibitors
The potency of Class IIa Histone Deacetylase (HDAC) inhibitors was quantified by measuring the Histone Deacetylase 4 (HDAC4) catalytic domain enzymatic activity using the fluorogenic substrate, Boc-Lys(TFA)-AMC. The substrate was deacetylated to Boc-Lys-AMC by HDAC4. […] The fluorescence of the sample was directly related to the histone deacetylase activity in the sample.
as §1, with “dimethyl sulfoxide (DMSO).” for “DMSO.”, “60 μL” for “70”, “pipette (Matrix Technologies Ltd).” for “pipette.”
2 μL (200×) of each diluted solution and each control (full activity: 100% DMSO alone or full inhibition 1 mM) was stamped into V-bottomed polypropylene 384-well compound plates using either the Bravo (384-well head from Agilent) or 12.5 μL 16-channel Matrix multi-channel pipette (Matrix Technologies Ltd). Each well with the 200× compound solution was diluted 1:20 by the addition of 38 μL assay buffer+DMSO (10.5% DMSO, 45 mM Tris-HCl, 123 mM NaCl, 2.4 mM KCl, and 0.9 mM MgCl2 at pH 8.0 and equilibrated to r.t.).
The HDAC4 catalytic domain enzyme was human catalytic domain HDAC4 protein (amino acids 648-1032) with a C-terminal 6× histidine tag, produced by BioFocus. A working solution of enzyme was prepared from a 500 μg/mL stock aliquot of HDAC4 catalytic domain (thawed on ice) diluted to 0.2 μg/mL with assay buffer (50 mM Tris-HCl, 137 mM NaCl, 2.7 mM KCl, and 1 mM MgCl2 at pH 8 and equilibrated to r.t.) just prior to the addition of the enzyme to the assay.
5× (50 μM) substrate was prepared just prior to the addition to the assay. A 1 mM substrate stock was made by diluting a 100 mM Boc-Lys(TFA)-AMC in DMSO solution 1:100 by adding it drop-wise to assay buffer (equilibrated to r.t.) while vortexing at slow speed to prevent precipitation. The 5× substrate was prepared by diluting the 1 mM substrate solution 1:20 by adding it drop-wise to assay buffer (equilibrated to r.t.) while vortexing at slow speed to prevent precipitation.
3× (30 μM) Developer/Stop Solution was prepared just prior to addition to the plate by diluting a stock solution of 10 mM reference compound 1:333 in 25 mg/mL trypsin (PAA Laboratories Ltd.) equilibrated to r.t.
5 μL of each solution of 1:20 diluted compound from above was transferred to a clear bottomed, black, 384-well assay plate using the Bravo or the Janus (384-well MDT head from Perkin Elmer). Using a 16-channel Matrix multi-channel pipette, 35 μL of the working solution of HDAC4 catalytic domain enzyme (0.2 μg/mL in assay buffer) was transferred to the assay plate. The assay was then started by adding 10 μL of 5× (50 μM) substrate to the assay plates using either the Bravo, Janus or 16-channel Matrix multi-channel pipette. The assay plate was then shaken for two minutes on an orbital shaker at 900 rpm (rotations per minute). Next the plate was incubated for 15 minutes at 37° C. The reaction was stopped by adding 25 μL of 3× (30 μM) developer/stop solution to the assay plates using either the Bravo, Janus or a 16-channel Matrix multi-channel pipette. Assay plates were then shaken for 5 minutes on an orbital shaker at 1200 rpm. Next, the assay plates were incubated at 37° C. for 1 hour in a tissue culture incubator. Finally, the fluorescence was measured (Excitation: 355 nm, Emission: 460 nm) using PerkinElmer EnVision in top read mode.

Each structure is given as a SMILES string. pIC50: −log10 of the molar value.

Sequence of human catalytic domain HDAC4 protein (P56524 648-1032): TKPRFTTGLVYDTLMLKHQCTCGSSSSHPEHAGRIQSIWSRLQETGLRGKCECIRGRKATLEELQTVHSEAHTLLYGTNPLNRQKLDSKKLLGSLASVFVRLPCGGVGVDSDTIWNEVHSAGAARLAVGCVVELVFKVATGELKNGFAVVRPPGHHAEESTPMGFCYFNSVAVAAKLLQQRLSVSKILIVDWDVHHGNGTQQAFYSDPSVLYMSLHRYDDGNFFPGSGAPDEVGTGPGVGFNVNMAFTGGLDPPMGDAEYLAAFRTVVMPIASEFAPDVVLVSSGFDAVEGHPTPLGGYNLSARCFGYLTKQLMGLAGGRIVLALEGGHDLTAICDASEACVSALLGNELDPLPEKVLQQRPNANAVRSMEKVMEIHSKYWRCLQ

Consider `O=C(NC1(CN2CCC3(CC3)C2)CCC1)c1ccc(-c2noc(C(F)(F)F)n2)cc1` [Example 9, N-(1-(5-Azaspiro[2.4]heptan-5-ylmethyl)cyclobutyl)-4-(5-(trifluoromethyl)-1,2,4-oxadiazol-3-yl)benzamide], for which the pIC50 in assay [1] was 6.15; in assay [2] it was 7.00; in assay [3], 7.24.

Source of the values: patent US10047073B2, “Histone deacetylase inhibitors and compositions and methods of use thereof” (CHDI Foundation, Inc., priority 2015, dated 2018).
